The values that follow come from patent publication US8183236B2, “Compounds with HIV-1 integrase inhibitory activity and use thereof as anti-HIV/AIDS therapeutics” (University of Southern California, priority 2007, dated 2012).

Bounds are passed on as bounds.

The target of test [1] is T1, HIV-1 integrase (wild-type IN) (Human immunodeficiency virus type 1 group M subtype B, UniProt P12497). The test can be described thus: HIV-1 integrase strand transfer assay (32P-labeled 21-mer, gel). Type of test: biochemical. In outline:
(§1)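 Wild-type IN at 200 nM preincubated with inhibitor 30 min at 30 °C in MnCl2 (7.5 mM), pH 7.2 MOPS buffer with 10% DMSO, then 20 nM 5′-32P-labeled 21-mer duplex added for 1 h. 19-mer and strand-transfer products resolved on denaturing 20% gels by phosphorimaging; IC50 from log concentration versus % inhibition.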

In test [2] the target is T1, HIV-1 integrase (wild-type IN). The test can be described thus: HIV-1 integrase 3′-processing assay (32P-labeled 21-mer, gel). The format is biochemical. The method in brief: as §1
[3] abbreviates: unit inferred, read-out: HIV-1 IN Inhibitory Activities Strand transfer.
The mark [4] stands for this setting: unit inferred, read-out: IN inhibition activity Strand transfer.
Where [5] appears, read: unit inferred, read-out: HIV-1 IN Inhibitory Activities 3′-processing.
Setting [6] is: unit inferred, read-out: IN inhibition activity 3′-processing.
[7] abbreviates: wild-type IN 200 nM, 7.5 mM MnCl2, read-out: Inhibition of IN Catalytic Activities IC50 (μM) Strand Transfer.
Setting [8] is: wild-type IN 200 nM, 7.5 mM MnCl2, read-out: Inhibition of IN Catalytic Activities IC50 (μM) 3′-processing.

As to `Cc1ccc(C(=O)C2=C(O)C(=O)N(CCCn3ccnc3)C2c2ccc(Cl)cc2)cc1` (stereo not shown) [Compound X155], the IC50 in test [1] (setting [3]) came to 67 µM; in test [1] (setting [4]), 67 ± 28 µM; in test [2] (setting [5]) it was 93 µM; in test [2] (setting [6]), 93 ± 12 µM.
Consider `CCOc1cc(/C=C2/C(=N)N3N=C(C(C)(F)F)SC3=NC2=O)ccc1OCc1ccc(F)cc1` [RT35], for which the IC50 in test [1] (setting [7]) amounted to 19 µM; in test [2] (setting [8]), 90 µM.
Consider `COc1cc(C(=O)N/N=C/c2ccc(-c3cccc(C(=O)O)c3)o2)cc(OC)c1OC` [AV15A38], for which the values for the IC50 in test [1] (setting [4]) and in test [2] (setting [6]) were 49 ± 12 µM and greater than 100 µM, respectively.
The corresponding values for `COc1ccc(C2C(C(=O)c3ccc(Br)cc3)=C(O)C(=O)N2c2cc(C(C)(C)C)on2)cc1OC` (stereo not shown) [AS171] are 43 ± 26 µM and 45 ± 8 µM.
On to `CCn1c(=O)c(C(=O)Nc2cc(Cl)ccc2OC)c(O)c2ccccc21` [XR5], for which the IC50 was 19 µM in test [1] (setting [7]) and 74 µM in test [2] (setting [8]).
Turning to `CC1=C(C#N)c2nc(N)c(C#N)c(C)c2/C1=C/c1ccc(-c2ccccc2C(=O)O)o1` [AV15A45], the IC50 is 39 µM in test [1] (setting [4]) and 91 ± 16 µM in test [2] (setting [6]).
As for `CCOC(=O)c1sc(N2C(=O)C(O)=C(C(=O)c3ccccc3)C2c2ccc(F)cc2)nc1C` (stereo not shown) [Compound M28A10], the IC50 in test [1] (setting [4]) amounted to 21 ± 4 µM; in test [2] (setting [6]), 44 ± 4 µM.
As to `COc1ccc(-n2c(Cc3ccccc3)nnc2SCC(=O)NNC(=O)c2ccccc2O)cc1` [AS9A2], the IC50 was 17 ± 1 µM in test [1] (setting [4]) and 18 ± 1 µM in test [2] (setting [6]).
On to `O=C(Nc1cc(C(=O)Nc2ccccc2C(=O)O)cc(C(=O)Nc2ccccc2C(=O)O)c1)c1ccccc1` [ROM1], for which the IC50 in test [1] (setting [3]) turned out to be 20 µM; in test [2] (setting [5]), 78 µM.
Regarding `COc1ccc(-c2nnc(SCC(=O)N/N=C/c3cccc(Oc4ccccc4)c3)n2-c2ccccc2)cc1OC` [LX6], the IC50 in test [1] (setting [4]) and in test [2] (setting [6]) was greater than 100 µM in each case.
In the case of `O=C(Nc1ccccc1C(=O)O)c1cccc(S(=O)(=O)Nc2cccc([N+](=O)[O-])c2)c1` [Example X148], the IC50 in test [1] (setting [3]) was 90 µM; in test [2] (setting [5]), 89 µM.
For the compound `O=C(O)c1cccc(-c2ccc(/C=N/Nc3nc4nonc4nc3Nc3ccc(F)cc3)o2)c1` [AV30], the IC50 in test [1] (setting [4]) was found to be 4 ± 1 µM; in test [1] (setting [7]), 4 µM; in test [2] (setting [6]), 10 ± 3 µM; in test [2] (setting [8]) it was 10 µM.
In the case of `O=C(NNC(=O)c1c(O)c2ccccc2[nH]c1=O)c1ccccc1Cl` [XR44], the IC50 in test [1] (setting [7]) was 26 µM; in test [2] (setting [8]) it was 28 µM.
As for `N#Cc1c(/N=C/c2ccc(-c3cccc(C(=O)O)c3)o2)sc2c1CCCC2` [AV15A23], the IC50 was 62 ± 7 µM in test [1] (setting [4]) and 89 ± 20 µM in test [2] (setting [6]).
In the case of `CCOc1ccc(N(CC(=O)Nc2ccccc2C(=O)O)S(=O)(=O)c2ccc(Cl)cc2)cc1` [OT27], the IC50 in test [1] (setting [7]) amounted to 47 ± 22 µM; in test [2] (setting [8]), 69 ± 15 µM.
For `Cc1cc(C)nc(SCc2nnc(SCC(=O)NNC(=O)c3ccccc3O)n2-c2ccccc2)n1` [AS9A3], the results for the IC50 in test [1] (setting [4]) and in test [2] (setting [6]) were 27 ± 8 µM and 51 ± 5 µM, respectively.
In the case of `O=C(O)c1c[nH]c2c(F)c(F)c(F)c(NCc3ccccc3)c2c1=O` [ROM3], the IC50 in test [1] (setting [7]) is 12 µM; in test [2] (setting [8]), greater than 12 µM.
Take `Nc1cc(N)nc(SCC(=O)O)n1` [GLD2A3]: the IC50 in test [1] (setting [4]) and in test [2] (setting [6]) was greater than 100 µM throughout.
For the compound `O=C(O)c1cccc(-c2ccc(/C=N/Nc3nc(N4CCOCC4)nc(N4CCOCC4)n3)o2)c1` [AV15A16], the IC50 in test [1] (setting [4]) and in test [2] (setting [6]) was greater than 100 µM each time.
Consider `O=C(O)c1cc(-c2ccc(/C=N/Nc3nc4nonc4nc3Nc3ccccc3F)o2)ccc1Cl` [AV15A14], for which the IC50 in test [1] (setting [4]) worked out at 13 ± 5 µM; in test [2] (setting [6]), 16 ± 8 µM.
`CCn1cc(C(=O)O)c(=O)c2cc(F)c(NNC(=O)C3CCCCC3)cc21` [ROM3A1]: the IC50 in test [1] (setting [7]) and in test [2] (setting [8]) was greater than 100 µM throughout.
As to `O=C(NCc1cccs1)c1c[nH]c2ccc(S(=O)(=O)Nc3ccc4c(c3)OCCO4)cc2c1=O` [ROM3A11], the IC50 came to 90 µM in test [1] (setting [7]) and 91 µM in test [2] (setting [8]).
As for `Cc1ccc(S(=O)(=O)N(CC(=O)Nc2ccccc2C(=O)O)c2cccc(Cl)c2)cc1` [OT24], the figures for the IC50 in test [1] (setting [7]) and in test [2] (setting [8]) were 71 ± 23 µM and 98 ± 5 µM, respectively.
As for `N#C/C(=C\c1ccc(-c2cccc(C(=O)O)c2)o1)c1nc2ccccc2[nH]1` [AV15A7], the values for the IC50 in test [1] (setting [4]) and in test [2] (setting [6]) were 17 µM and greater than 100 µM, respectively.
With `COc1ccc(/C=C2/SC(=S)N(CC(=O)O)C2=O)cc1OCc1ccccc1` [OT5], the results for the IC50 in test [1] (setting [7]) and in test [2] (setting [8]) were 54 ± 17 µM and greater than 100 µM, respectively.
Consider `O=C(/C=C/c1ccc(Cl)cc1)Nc1ccc(NC(=O)c2ccco2)cc1` [Example X159], for which the figures for the IC50 in test [1] (setting [3]) and in test [2] (setting [5]) were 91 µM and 90 µM, respectively.
As for `N#Cc1c(-c2ccc(Cl)cc2)cc(-c2ccccc2)nc1SCC(=O)O` [GLD2A2], the results for the IC50 in test [1] (setting [4]) and in test [2] (setting [6]) were 60 ± 12 µM and 98 ± 10 µM, respectively.
The corresponding values for `Cc1ccc(C(=O)C2=C(O)C(=O)N(c3nccs3)C2c2ccc(F)cc2)cc1` (stereo not shown) [Compound M28A7] are 78 ± 10 µM and greater than 100 µM.
Turning to `Cc1ccc2ccc(C(Nc3ccccn3)c3ccc(F)cc3)c(O)c2n1` (stereo not shown) [RT30], the IC50 in test [1] (setting [7]) and in test [2] (setting [8]) was greater than 100 µM throughout.
Consider `O=C(CCN1C(=O)/C(=C/c2ccccc2Cl)SC1=S)Nc1ccc([N+](=O)[O-])cc1` [Compound X200], for which the IC50 in test [1] (setting [7]) and in test [2] (setting [8]) was greater than 100 µM in each case.
Regarding `CCn1cc(C(=O)O)c(=O)c2cc(F)c(N3CCN(C(=S)NC(=O)C45CC6CC(CC(C6)C4)C5)CC3)cc21` [ROM3A8], the IC50 in test [1] (setting [7]) worked out at 74 µM; in test [2] (setting [8]), 78 µM.
In the case of `Oc1cccc2ccc(/C=N/N=C/c3ccc4cccc(O)c4n3)nc12` [RT3], the IC50 in test [1] (setting [7]) is 69 µM; in test [2] (setting [8]), 45 µM.
Consider `CCn1cc(C(=O)NN)c(=O)c2cc(F)c(N3CCCCCC3)cc21` [ROM3A2], for which the IC50 in test [1] (setting [7]) turned out to be 98 µM; in test [2] (setting [8]) it was 94 µM.
As to `COc1cc(C=C2SC(=S)N(CC(=O)Nc3cc(Cl)ccc3O)C2=O)cc(OC)c1OC` [Compound X171], the values for the IC50 in test [1] (setting [7]) and in test [2] (setting [8]) were 17 ± 2 µM and 32 ± 11 µM, respectively.
As to `CCn1cc(C(=O)O)c(=O)c2cc(F)c(N3CCN(C(=O)c4cccc(C)c4)CC3)cc21` [ROM3A3], the IC50 in test [1] (setting [7]) and in test [2] (setting [8]) was greater than 100 µM throughout.
On to `CC(C)(C)c1ccc(C2C(C(=O)c3ccc(F)cc3)=C(O)C(=O)N2c2nncs2)cc1` (stereo not shown) [Compound M28A2], for which the figures for the IC50 in test [1] (setting [4]) and in test [2] (setting [6]) were 43 ± 8 µM and 64 ± 28 µM, respectively.
For the compound `Cc1ccc(C=C2SC(=S)N(CC(=O)Nc3ccc([N+](=O)[O-])cc3O)C2=O)cc1` [Compound X195], the IC50 in test [1] (setting [7]) and in test [2] (setting [8]) was greater than 100 µM in each case.
Regarding `CC1=C(C#N)c2nc(N)c(C#N)c(C)c2/C1=C/c1ccc(-c2ccc(C(=O)O)c(Cl)c2)o1` [AV15A44], the IC50 was 68 ± 22 µM in test [1] (setting [4]) and greater than 100 µM in test [2] (setting [6]).
The corresponding values for `Cc1ccc(C(=O)C2=C(O)C(=O)N(c3ncc(S(=O)(=O)c4ccc([N+](=O)[O-])cc4)s3)C2c2cccc(Cl)c2)cc1` (stereo not shown) [AS139 BAS 02234865] are 8 ± 2 µM and 27 ± 10 µM.
With `Cc1ccc2[nH]c(/C(C#N)=C\c3ccc(-c4ccc(C(=O)O)c(O)c4)o3)nc2c1` [Compound X132], the IC50 is 8 ± 1 µM in test [1] (setting [7]) and 16 ± 5 µM in test [2] (setting [8]).
Turning to `COc1cc(/C=N/NC2=NC(=O)C(CC(=O)Nc3ccc(Cl)c(Cl)c3)S2)ccc1O` (stereo not shown) [Example X278], the IC50 was determined as 38 µM in test [1] (setting [3]) and 89 µM in test [2] (setting [5]).
Consider `COc1cc(/C=N/Nc2nc3nonc3nc2Nc2ccccc2F)ccc1O` [AV15A18], for which the IC50 was determined as 17 ± 5 µM in test [1] (setting [4]) and 30 ± 12 µM in test [2] (setting [6]).
